Counter-ions that a name gives are not always drawn.
biological target: T1, human LPA1 (Homo sapiens, UniProt Q92633); test: LPA1 functional antagonist assay (LPA-induced calcium flux in CHO cells overexpressing human LPA1); type: cell-based; settings: inhibition of calcium flux induced by 10 nM LPA, CHO cells overexpressing human LPA1; read-out: hLPA1 IC50
T1 construct: expressed in transfected cells; host or cells: Chinese hamster ovary (CHO) cells
Experimental: The effectiveness of compounds of the present invention as LPA1 inhibitors can be determined in an LPA1 functional antagonist assay as follows:
Chinese hamster ovary cells overexpressing human LPA1 were plated overnight (15,000 cells/well) in poly-D-lysine coated 384-well microplates (Greiner bio-one, Cat #781946) in DMEM/F12 medium (Gibco, Cat #11039). Following overnight culture, cells were loaded with calcium indicator dye (AAT Bioquest Inc, Cat #34601) for 30 minutes at 37° C. The cells were then equilibrated to room temperature for 30 minutes before the assay. Test compounds solubilized in DMSO were transferred to 384 well non-binding surface plates (Corning, Cat #3575) using the Labcyte Echo acoustic dispense and diluted with assay buffer [IX HBSS with calcium/magnesium (Gibco Cat #14025-092), 20 mM HEPES (Gibco Cat #15630-080) and 0.1% fatty acid free BSA (Sigma Cat #A9205)] to a final concentration of 0.5% DMSO. Diluted compounds were added to the cells by FDSS6000 (Hamamatsu) at final concentrations ranging from 0.08 nM to 5 μM. and were then incubated for 20 min at room temperature at which time LPA (Avanti Polar Lipids Cat #857130C) was added at final concentrations of 10 nM to stimulate the cells. The compound IC50 value was defined as the concentration of test compound which inhibited 50% of the calcium flux induced by LPA alone. IC50 values were determined by fitting data to a 4-parameter logistic equation (GraphPad Prism, San Diego Calif.).

T1 sequence (Q92633 whole entry): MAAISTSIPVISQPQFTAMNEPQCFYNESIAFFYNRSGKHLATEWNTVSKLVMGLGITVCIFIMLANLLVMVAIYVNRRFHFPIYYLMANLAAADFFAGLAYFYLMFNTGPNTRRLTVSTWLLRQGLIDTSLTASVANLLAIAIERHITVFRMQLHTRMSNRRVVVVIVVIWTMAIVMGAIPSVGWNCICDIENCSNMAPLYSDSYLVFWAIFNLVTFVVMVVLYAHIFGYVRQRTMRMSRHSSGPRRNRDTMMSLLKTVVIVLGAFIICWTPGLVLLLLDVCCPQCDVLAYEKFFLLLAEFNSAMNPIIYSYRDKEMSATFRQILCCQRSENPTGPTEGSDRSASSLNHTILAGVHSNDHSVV

Row | SMILES | IC50
1 | Cc1nc(-c2nnn(C)c2CNc2ncn(CC(C)C)n2)ccc1O[C@H]1CCC[C@H](C(=O)O)C1 [Example 25, (1 S,3 S)-3-((6-(5-(((1-isobutyl-1H-1,2,4-triazol-3-yl)amino)methyl)-1-methyl-1H-1,2,3-triazol-4-yl)-2-methylpyridin-3-yl)oxy)cyclohexane-1-carboxylic acid] | 0.125 µM
2 | Cc1nc(-c2nnn(C)c2CNc2nc(C)c(C)s2)ccc1O[C@H]1CCC[C@H](C(=O)O)C1 [Example 26] | 3.65 µM
3 | Cc1nc(-c2nnn(C)c2CNc2cnn(C3CCCCC3)n2)ccc1O[C@H]1CCC[C@H](C(=O)O)C1 [Example 27] | 0.1 µM
4 | CCCn1ncc(NCc2c(-c3ccc(O[C@H]4CCC[C@H](C(=O)O)C4)c(C)n3)nnn2C)n1 [Example 29] | 0.297 µM
5 | Cc1nc(-c2nnn(C)c2CNc2cnn(C3CCC3)n2)ccc1O[C@H]1CCC[C@H](C(=O)O)C1 [Example 30] | 0.091 µM
6 | Cc1nc(-c2nnn(C)c2CNc2cnn(CC3CC3)n2)ccc1O[C@H]1CCC[C@H](C(=O)O)C1 [Example 31] | 0.054 µM
7 | Cc1nc(-c2nnn(C)c2CNc2cnn(-c3ccc(F)cc3)n2)ccc1O[C@H]1CCC[C@H](C(=O)O)C1 [Example 33, (1 S,3 S)-3-((6-(5-(((2-(4-fluorophenyl)-2H-1,2,3-triazol-4-yl)amino)methyl)-1-methyl-1H-1,2,3-triazol-4-yl)-2-methylpyridin-3-yl)oxy)cyclohexane-1-carboxylic acid] | 0.084 µM
8 | Cc1nc(-c2nnn(C)c2CNc2ncn(Cc3ccccc3)n2)ccc1O[C@H]1CCC[C@H](C(=O)O)C1 [Example 34] | 0.332 µM
9 | CCCn1cnc(NCc2c(-c3ccc(O[C@H]4CCC[C@H](C(=O)O)C4)c(C)n3)nnn2C)n1 [Example 35] | 0.309 µM
10 | Cc1nc(-c2nnn(C)c2CNc2ncn(C3CCCCC3)n2)ccc1O[C@H]1CCC[C@H](C(=O)O)C1 [Example 36] | 0.147 µM
11 | Cc1nc(-c2nnn(C)c2CNc2ncn(-c3ccc(F)cc3)n2)ccc1O[C@H]1CCC[C@H](C(=O)O)C1 [Example 39] | 0.061 µM
12 | Cc1nc(-c2nnn(C)c2Cn2nc(Cc3ccccc3)oc2=N)ccc1O[C@H]1CCC[C@H](C(=O)O)C1 [Example 41, (1S,3S)-3-((6-(5-((5-Benzyl-2-imino-1,3,4-oxadiazol-3(2H)-yl)methyl)-1-methyl-1H-1,2,3-triazol-4-yl)-2-methylpyridin-3-yl)oxy)cyclohexane-1-carboxylic acid, bis TFA salt] | 0.221 µM
13 | Cc1nc(-c2nnn(C)c2CNc2nnc(C(C)C)o2)ccc1O[C@H]1CCC[C@H](C(=O)O)C1 [Example 42, (1S,3S)-3-((6-(5-(((5-Isopropyl-1,3,4-oxadiazol-2-yl)amino)methyl)-1-methyl-1H-1,2,3-triazol-4-yl)-2-methylpyridin-3-yl)oxy)cyclohexane-1-carboxylic acid, 2 TFA salt] | 1.41 µM
14 | CCCCc1noc(NCc2c(-c3ccc(O[C@H]4CCC[C@H](C(=O)O)C4)c(C)n3)nnn2C)n1 [Example 43, (1S,3S)-3-((6-(5-(((3-Butyl-1,2,4-oxadiazol-5-yl)amino)methyl)-1-methyl-1H-1,2,3-triazol-4-yl)-2-methylpyridin-3-yl)oxy)cyclohexane-1-carboxylic acid, bis TFA salt] | 0.076 µM
15 | Cc1nc(-c2nnn(C)c2CNc2nc(C3CCC3)no2)ccc1O[C@H]1CCC[C@H](C(=O)O)C1 [Example 44, (1S,3S)-3-((6-(5-(((3-Cyclobutyl-1,2,4-oxadiazol-5-yl)amino)methyl)-1-methyl-1H-1,2,3-triazol-4-yl)-2-methylpyridin-3-yl)oxy)cyclohexane-1-carboxylic acid, 2 TFA salt] | 0.105 µM
16 | Cc1nc(-c2nnn(C)c2Cn2nc(C3CCCC3)oc2=N)ccc1O[C@H]1CCC[C@H](C(=O)O)C1 [Example 45] | 0.228 µM
17 | Cc1nc(-c2nnn(C)c2Cn2nc(C3CCC3)oc2=N)ccc1O[C@H]1CCC[C@H](C(=O)O)C1 [Example 46] | 0.137 µM

Row | SMILES | IC50
18 | Cc1nc(-c2nnn(C)c2CNc2nnc(C(F)(F)F)o2)ccc1O[C@H]1CCC[C@H](C(=O)O)C1 [Example 47] | 0.595 µM
19 | Cc1nc(-c2nnn(C)c2CNc2nnc(C3CCCC3)o2)ccc1O[C@H]1CCC[C@H](C(=O)O)C1 [Example 48] | 0.209 µM
20 | Cc1nc(-c2nnn(C)c2CNc2nnc(-c3ccccc3)o2)ccc1O[C@H]1CCC[C@H](C(=O)O)C1 [Example 49] | 0.18 µM
21 | Cc1nc(-c2nnn(C)c2CNc2nnc(Cc3ccccc3)o2)ccc1O[C@H]1CCC[C@H](C(=O)O)C1 [Example 50] | 0.096 µM
22 | Cc1nc(-c2nnn(C)c2CNc2nnc(C3CCC3)o2)ccc1O[C@H]1CCC[C@H](C(=O)O)C1 [Example 51] | 0.059 µM
23 | CCCc1nnc(NCc2c(-c3ccc(O[C@H]4CCC[C@H](C(=O)O)C4)c(C)n3)nnn2C)o1 [Example 52] | 0.396 µM
24 | CCCCc1nnc(NCc2c(-c3ccc(O[C@H]4CCC[C@H](C(=O)O)C4)c(C)n3)nnn2C)o1 [Example 53] | 0.297 µM
25 | Cc1nc(-c2nnn(C)c2CNc2nnc(CC(C)C)o2)ccc1O[C@H]1CCC[C@H](C(=O)O)C1 [Example 54] | 0.191 µM
26 | Cc1nc(-c2nnn(C)c2CNc2nnc(CC3CC3)o2)ccc1O[C@H]1CCC[C@H](C(=O)O)C1 [Example 56] | 0.136 µM
27 | Cc1nc(-c2nnn(C)c2CNc2nnc(C3CCCCC3)o2)ccc1O[C@H]1CCC[C@H](C(=O)O)C1 [Example 57] | 0.204 µM
28 | Cc1nc(-c2nnn(C)c2CNc2nc(C3CC3)no2)ccc1O[C@H]1CCC[C@H](C(=O)O)C1 [Example 58] | 0.316 µM
29 | Cc1nc(-c2nnn(C)c2CNc2nc(C(C)C)no2)ccc1O[C@H]1CCC[C@H](C(=O)O)C1 [Example 59] | 0.495 µM
30 | Cc1nc(-c2nnn(C)c2CNc2nc(C(C)(C)C)no2)ccc1O[C@H]1CCC[C@H](C(=O)O)C1 [Example 60] | 0.478 µM
31 | Cc1nc(-c2nnn(C)c2CNc2nc(CC3CC3)no2)ccc1O[C@H]1CCC[C@H](C(=O)O)C1 [Example 64] | 0.105 µM
32 | Cc1nc(-c2nnn(C)c2Cc2nnc(Cc3ccccc3)o2)ccc1O[C@H]1CCC[C@H](C(=O)O)C1 [Example 73, (1 S,3 S)-3-((6-(5-((5-benzyl-1,3,4-oxadiazol-2-yl)methyl)-1-methyl-1H-1,2,3-triazol-4-yl)-2-methylpyridin-3-yl)oxy)cyclohexane-1-carboxylic acid] | 0.055 µM
33 | CCCCc1nnc(Cc2c(-c3ccc(O[C@H]4CCC[C@H](C(=O)O)C4)c(C)n3)nnn2C)o1 [Example 74] | 0.227 µM

Compounds with a lower IC50, results first:

Row | IC50 | SMILES
34 | 0.033 µM | Cc1nc(-c2nnn(C)c2CNc2cnn(CC3CCC3)n2)ccc1O[C@H]1CCC[C@H](C(=O)O)C1 [Example 24, (1 S,3 S)-3-((6-(5-(((2-(cyclobutylmethyl)-2H-1,2,3-triazol-4-yl)amino)methyl)-1-methyl-1H-1,2,3-triazol-4-yl)-2-methylpyridin-3-yl)oxy)cyclohexane-1-carboxylic acid]
35 | 0.039 µM | Cc1nc(-c2nnn(C)c2CNc2cnn(C3CCCC3)n2)ccc1O[C@H]1CCC[C@H](C(=O)O)C1 [Example 28]
36 | 0.01 µM | Cc1nc(-c2nnn(C)c2CNc2cnn(-c3ccccc3)n2)ccc1O[C@H]1CCC[C@H](C(=O)O)C1 [Example 32]
37 | 0.046 µM | Cc1nc(-c2nnn(C)c2CNc2nc(C)n(-c3ccccc3)n2)ccc1O[C@H]1CCC[C@H](C(=O)O)C1 [Example 37]
38 | 0.034 µM | Cc1nc(-c2nnn(C)c2CNc2ncn(-c3ccccc3)n2)ccc1O[C@H]1CCC[C@H](C(=O)O)C1 [Example 38]
39 | 0.046 µM | Cc1nc(-c2nnn(C)c2CNc2ncn(-c3cc(F)cc(F)c3)n2)ccc1O[C@H]1CCC[C@H](C(=O)O)C1 [Example 40]
40 | 0.045 µM | Cc1nc(-c2nnn(C)c2CNc2nnc(CCC(C)C)o2)ccc1O[C@H]1CCC[C@H](C(=O)O)C1 [Example 55]
41 | 0.026 µM | Cc1nc(-c2nnn(C)c2CNc2nc(-c3ccccc3)no2)ccc1O[C@H]1CCC[C@H](C(=O)O)C1 [Example 61]
42 | 0.043 µM | Cc1nc(-c2nnn(C)c2CNc2nc(C3CCCC3)no2)ccc1O[C@H]1CCC[C@H](C(=O)O)C1 [Example 62]
43 | 0.038 µM | Cc1nc(-c2nnn(C)c2CNc2nc(Cc3ccccc3)no2)ccc1O[C@H]1CCC[C@H](C(=O)O)C1 [Example 63]
44 | 0.023 µM | Cc1nc(-c2nnn(C)c2CNc2noc(-c3ccccc3)n2)ccc1O[C@H]1CCC[C@H](C(=O)O)C1 [Example 65]
45 | 0.015 µM | CCCCc1nc(NCc2c(-c3ccc(O[C@H]4CCC[C@H](C(=O)O)C4)c(C)n3)nnn2C)no1 [Example 66]
46 | 0.014 µM | Cc1nc(-c2nnn(C)c2CNc2noc(Cc3ccccc3)n2)ccc1O[C@H]1CCC[C@H](C(=O)O)C1 [Example 67]
47 | 0.042 µM | CCCc1nc(NCc2c(-c3ccc(O[C@H]4CCC[C@H](C(=O)O)C4)c(C)n3)nnn2C)no1 [Example 68]
48 | 0.015 µM | Cc1nc(-c2nnn(C)c2CNc2noc(CCC(C)C)n2)ccc1O[C@H]1CCC[C@H](C(=O)O)C1 [Example 69]
49 | 0.033 µM | Cc1nc(-c2nnn(C)c2CNc2noc(CC(C)C)n2)ccc1O[C@H]1CCC[C@H](C(=O)O)C1 [Example 71]
50 | 0.004 µM | Cc1nc(-c2nnn(C)c2CNc2noc(CC3CCC3)n2)ccc1O[C@H]1CCC[C@H](C(=O)O)C1 [Example 72]

Source: patent publication US11319315B2, “Cyclohexyl acid triazole azoles as LPA antagonists” (BRISTOL-MYERS SQUIBB COMPANY, priority 2017, dated 2022)
